Source: patent US20120142672A1, “HETEROCYCLIC COMPOUND AND USE THEREOF” (priority 2009, published 2012)

system: Aβ42 production; test: Measurement of amyloid β production inhibition rate using primary nerve cell; assay type: cell-based; settings: Rattus norvegicus, 72 h, primary nerve cells from cerebral cortex of SD rat fetus; cultured 3 days with compound; sandwich ELISA BNT77-BC05 of culture supernatant; read-out: Aβ42 production inhibitory activity IC50
Method: (1) Measurement of Amyloid β Production Inhibition Rate Using Primary Nerve Cell
The primary nerve cells were collected from the cerebral cortex of rat fetus (CLEA Japan, Inc.: SD rat, fetal life 17 days of age), and suspended in a neurobasal medium containing B27 supplement, L-glutamine, penicillin-streptomycin (manufactured by Invitrogen) at 500,000 cells/mL. Then, the suspension was seeded in poly L-lysine-coated 96 well plate (manufactured by SUMITOMO BAKELITE) by 100 μL, and cultured at 37° C., 5% CO2 for 7 days. The medium was completely removed, and a new neurobasal medium was added at 75 μL/well. Thereto was added (75 μL/well) a neurobasal medium supplemented with a 2-fold measurement concentration of an evaluation target compound, and the cells were cultured for 3 days. The culture supernatant was collected from each well, diluted as appropriate, applied to sandwich ELISA between BNT77 antibody-BA27 antibody (for Aβ40) and sandwich ELISA between BNT77 antibody-BC05 antibody (for Aβ42), and the amounts of Aβ40 and Aβ42 were measured.
The amyloid β production inhibition rate (%) of the compound was calculated by the following formula.
(1−(amyloid β production amount with addition of compound)/(amyloid β production amount without addition of compound))×100

SMILES	IC50 [nM]
COc1cc(-c2nnc3n2CCCC3c2ccccc2C(F)(F)F)ccc1-c1cnc(C)o1 (centres unmarked) [Example 8, 3-[3-methoxy-4-(2-methyl-1,3-oxazol-5-yl)phenyl]-8-[2-(trifluoromethyl)phenyl]-5,6,7,8-tetrahydro[1,2,4]triazolo[4,3-a]pyridine]	88
COc1cc(-c2nc3n(n2)CCCC3c2ccccc2C(F)(F)F)ccc1-c1cnc(C)o1 (centres unmarked) [Example 12, 2-[3-methoxy-4-(2-methyl-1,3-oxazol-5-yl)phenyl]-8-[2-(trifluoromethyl)phenyl]-5,6,7,8-tetrahydro[1,2,4]triazolo[1,5-a]pyridine]	150
COc1cc(-c2nnc3n2CCCCC3c2ccc(Cl)c(Cl)c2)ccc1-c1cnc(C)o1 (centres unmarked) [Example 15, 9-(3,4-dichlorophenyl)-3-[3-methoxy-4-(2-methyl-1,3-oxazol-5-yl)phenyl]-6,7,8,9-tetrahydro-5H-[1,2,4]triazolo[4,3-a]azepine]	170
COc1cc(-c2nnc3n2CCCC3Oc2ccc(Cl)c(Cl)c2)ccc1-c1cnc(C)o1 (centres unmarked) [Example 25, 8-(3,4-dichlorophenoxy)-3-[3-methoxy-4-(2-methyl-1,3-oxazol-5-yl)phenyl]-5,6,7,8-tetrahydro[1,2,4]triazolo[4,3-a]pyridine]	88
COc1cc(-c2nnc3n2CCCC3c2ccc(F)cc2C(F)(F)F)ccc1-c1cnc(C)o1 (centres unmarked) [Example 28, 8-[4-fluoro-2-(trifluoromethyl)phenyl]-3-[3-methoxy-4-(2-methyl-1,3-oxazol-5-yl)phenyl]-5,6,7,8-tetrahydro[1,2,4]triazolo[4,3-a]pyridine]	200
COc1cc(-c2nnc3n2CCC[C@@H]3c2ccc(Cl)cc2C(F)(F)F)ccc1-c1cnc(C)o1 [Example 34, (R)-(+)-8-[4-chloro-2-(trifluoromethyl)phenyl]-3-[3-methoxy-4-(2-methyl-1,3-oxazol-5-yl)phenyl]-5,6,7,8-tetrahydro[1,2,4]triazolo[4,3-a]pyridine]	42

same assay, conditions: primary nerve cells from cerebral cortex of SD rat fetus; cultured 3 days with compound; sandwich ELISA BNT77-BC05 of culture supernatant; read-out: Aβ42 production inhibitory activity IC50

SMILES	IC50 [nM]
COc1cc(-c2nnc3n2CCCC3c2ccc(Cl)c(Cl)c2)ccc1-c1cnc(C)o1 (single isomer, unassigned; (+)) [Example 2, (+)-8-(3,4-dichlorophenyl)-3-[3-methoxy-4-(2-methyl-1,3-oxazol-5-yl)phenyl]-5,6,7,8-tetrahydro[1,2,4]triazolo[4,3-a]pyridine]	34
COc1cc(-c2nnc3n2CCCC3c2ccc(Cl)c(Cl)c2)ccc1-c1cnc(C)o1 (centres unmarked) [Example 1, 8-(3,4-dichlorophenyl)-3-[3-methoxy-4-(2-methyl-1,3-oxazol-5-yl)phenyl]-5,6,7,8-tetrahydro[1,2,4]triazolo[4,3-a]pyridine]	90
